Assay results as given in patent publication US7612087B2, “Heterocyclic compounds as inhibitors of beta-lactamases” (Novexel, priority 2002, dated 2009).
Structures can show the parent of a compound that is named as a salt.

What was measured:
[1] = target: T1, β-lactamase P99 (Enterobacter cloacae, UniProt P05364); experiment: biochemical
T1 construct: The β-lactamases are isolated from bacterial strains which are resistant to penicillins and cephalosporins; endogenous in cells; host or cells: Enterobacter cloacae 293HT6 (natural producer; French-press lysate, 100,000 g supernatant)
Outline: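 P99 β-lactamase, taken from the soluble fraction of an Enterobacter cloacae 293HT6 lysate, was assayed at 37° C. in 50 mM sodium phosphate buffer pH7.0 with 100 μM Nitrocefin as the chromogenic substrate. Hydrolysis was followed kinetically at 485 nm at initial speed, with and without a 5 mn enzyme–inhibitor preincubation. Inhibitors were tested at 6 or 8 concentrations in duplicate, and IC50 was fitted with GraFit.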

[2] = system: P. aeruginosa 391HT7 (PSE); experiment: MIC, micro-dilution in liquid medium, β-lactamine with product at 5 mg/l; assay type: cell-based; conditions: compound at 5 mg/l, 24 hours at 37° C.; for MIC of Cefotaxime in combination with the compound: Trial 11, 391HT7 P. aeruginosa PSE; for MIC of Piperacillin in combination with the compound: Trial 11, 391HT7 PSE
Outline: (§1)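 MIC values (mg/l) correspond to the β-lactamine concentration at which no bacterial development occurs after 24 hours at 37° C. Each strain is grown in liquid medium across a β-lactamine concentration series, with the product present throughout at a constant 5 mg/l.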

[3] = system: S. aureus 011GO66 (PeniR); experiment: as above; assay type: cell-based; conditions: compound at 5 mg/l, 24 hours at 37° C.; for MIC of Cefotaxime in combination with the compound: Trial 1, 011GO66 S. aureus PeniR; for MIC of Piperacillin in combination with the compound: Trial 1, 011GO66 peniR
Outline: as §1

[4] = system: Serratia 301HT6; experiment: as above; assay type: cell-based; conditions: compound at 5 mg/l; Trial 10, 301HT6 Serratia; 24 hours at 37° C.
Outline: as §1

[5] = system: E. coli 250HT21 (Tem1); experiment: as above; assay type: cell-based; conditions: compound at 5 mg/l, 24 hours at 37° C.; for MIC of Cefotaxime in combination with the compound: Trial 2, 250HT21 E. coli Tem1; for MIC of Piperacillin in combination with the compound: Trial 2, 250HT21 Tem1
Outline: as §1

[6] = system: P. aeruginosa 391HT8 (PSE); experiment: as above; assay type: cell-based; conditions: compound at 5 mg/l, 24 hours at 37° C.; for MIC of Cefotaxime in combination with the compound: Trial 12, 391HT8 P. aeruginosa PSE; for MIC of Piperacillin in combination with the compound: Trial 12, 391HT8 PSE
Outline: as §1

[7] = system: E. coli 250HT23 (Class D); experiment: as above; assay type: cell-based; conditions: compound at 5 mg/l, 24 hours at 37° C.; for MIC of Piperacillin in combination with the compound: Trial 8, 250HT23 Class D; for MIC of Cefotaxime in combination with the compound: Trial 8, 250HT23 E. coli Class D
Outline: as §1

[8] = system: E. coli 250SJ1 (Tem7); experiment: as above; assay type: cell-based; conditions: compound at 5 mg/l, 24 hours at 37° C.; for MIC of Cefotaxime in combination with the compound: Trial 5, 250SJ1 E. coli Tem7; for MIC of Piperacillin in combination with the compound: Trial 5, 250SJ1 Tem7
Outline: as §1

[9] = system: E. cloacae 293HT6 (Class C); experiment: as above; assay type: cell-based; conditions: compound at 5 mg/l, 24 hours at 37° C.; for MIC of Piperacillin in combination with the compound: Trial 9, 293HT6 Class; for MIC of Cefotaxime in combination with the compound: Trial 9, 293HT6 E. cloacae Class C
Outline: as §1

[10] = system: E. coli 250HT22 (Tem2); experiment: as above; assay type: cell-based; conditions: compound at 5 mg/l, 24 hours at 37° C.; for MIC of Cefotaxime in combination with the compound: Trial 3, 250HT22 E. coli Tem2; for MIC of Piperacillin in combination with the compound: Trial 3, 250HT22 Tem2
Outline: as §1

[11] = system: E. coli 250HT26 (SHV1); experiment: as above; assay type: cell-based; conditions: compound at 5 mg/l, 24 hours at 37° C.; for MIC of Cefotaxime in combination with the compound: Trial 6, 250HT26 E. coli SHV1; for MIC of Piperacillin in combination with the compound: Trial 6, 250HT26 SHV1
Outline: as §1

[12] = system: E. coli 250BE1 (SHV4); experiment: as above; assay type: cell-based; conditions: compound at 5 mg/l, 24 hours at 37° C.; for MIC of Cefotaxime in combination with the compound: Trial 7, 250BE1 E. coli SHV4; for MIC of Piperacillin in combination with the compound: Trial 7, 250BE1 SHV4
Outline: as §1

[13] = system: E. coli 250CF1 (Tem3); experiment: microbe, parasite or virus in culture; assay type: cell-based; conditions: compound at 5 mg/l, 24 hours at 37° C.; for MIC of Cefotaxime in combination with the compound: Trial 4, 250CF1 E. coli Tem3; for MIC of Piperacillin in combination with the compound: Trial 4, 250CF1 Tem3
Outline: as §1

[14] = target: T2, β-lactamase TEM1 (Escherichia coli, UniProt P62593); experiment: Inhibition of isolated β-lactamase Tem-1 (Nitrocefin hydrolysis); assay type: biochemical, E.coli 250HT21; conditions: 100 μM Nitrocefin, 50 mM sodium phosphate buffer pH7.0, 37° C.
T2 construct: The β-lactamases are isolated from bacterial strains which are resistant to penicillins and cephalosporins; endogenous in cells; host or cells: E. coli 250HT21 (natural producer; French-press lysate, 100,000 g supernatant)
Outline: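 TEM-1 from soluble extract of E. coli 250HT21, normalized enzyme, 100 μM Nitrocefin in 50 mM sodium phosphate pH 7.0 at 37 °C. Initial-rate hydrolysis read kinetically at 485 nm, with and without 5 min enzyme–inhibitor preincubation. CI50 from 6 or 8 concentrations in duplicate.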

T2 sequence (P62593 24-286 limits assumed): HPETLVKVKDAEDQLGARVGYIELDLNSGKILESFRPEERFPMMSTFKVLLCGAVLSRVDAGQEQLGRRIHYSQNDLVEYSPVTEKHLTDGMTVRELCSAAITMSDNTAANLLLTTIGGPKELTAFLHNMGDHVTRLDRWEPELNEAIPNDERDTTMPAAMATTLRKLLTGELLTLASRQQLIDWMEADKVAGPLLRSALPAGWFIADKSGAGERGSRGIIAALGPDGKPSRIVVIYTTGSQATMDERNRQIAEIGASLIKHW
T1 sequence (P05364 21-381): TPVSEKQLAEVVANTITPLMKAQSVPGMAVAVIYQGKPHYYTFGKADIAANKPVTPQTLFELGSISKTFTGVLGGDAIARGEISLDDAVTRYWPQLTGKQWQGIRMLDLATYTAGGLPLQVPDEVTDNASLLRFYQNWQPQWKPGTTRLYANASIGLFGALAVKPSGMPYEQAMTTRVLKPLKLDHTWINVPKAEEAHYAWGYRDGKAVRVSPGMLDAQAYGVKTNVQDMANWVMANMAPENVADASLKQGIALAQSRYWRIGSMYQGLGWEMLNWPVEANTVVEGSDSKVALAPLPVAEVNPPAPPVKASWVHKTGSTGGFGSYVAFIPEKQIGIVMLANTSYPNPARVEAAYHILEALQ

Row | Structure (SMILES) | IC50 [1] | MIC of Cefotaxime in combination with the compound [2] | MIC of Piperacillin in combination with the compound [2] | MIC of Cefotaxime in combination with the compound [3] | MIC of Piperacillin in combination with the compound [3] | MIC of Cefotaxime in combination with the compound [4] | MIC of Piperacillin in combination with the compound [4] | MIC of Cefotaxime in combination with the compound [5] | MIC of Piperacillin in combination with the compound [5] | MIC of Cefotaxime in combination with the compound [6] | MIC of Piperacillin in combination with the compound [6] | MIC of Piperacillin in combination with the compound [7] | MIC of Cefotaxime in combination with the compound [7] | MIC of Piperacillin in combination with the compound [8] | MIC of Piperacillin in combination with the compound [9] | MIC of Piperacillin in combination with the compound [10] | MIC of Piperacillin in combination with the compound [11] | MIC of Piperacillin in combination with the compound [12] | MIC of Piperacillin in combination with the compound [13] | IC50 [14] | other results
1 | NC(=O)C(Cc1ccccc1)NC(=O)C1CCC2CN1C(=O)N2OS(=O)(=O)O (stereo not drawn) [Example 44, sodium salt of trans-N-(1-amino-1-oxo-3-phenyl-2-propyl)-7-oxo-6-(sulphooxy)-1,6-diazabicyclo[3.2.1]octane-2-carboxamide] | 100 nM | >40 µg/mL | >40 µg/mL | 2.5 µg/mL | 2.5 µg/mL | 10 µg/mL | >40 µg/mL | <=0.04 μg/ml | 5 µg/mL | >40 µg/mL | >40 µg/mL | 40 µg/mL | <=0.04 μg/ml | >40 µg/mL | >40 µg/mL | >40 µg/mL | >40 µg/mL | >40 µg/mL | 40 µg/mL | 59 nM | MIC of Cefotaxime in combination with the compound [8]: 0.08 µg/mL; MIC of Cefotaxime in combination with the compound [9]: >40 µg/mL; MIC of Cefotaxime in combination with the compound [10]: 0.15 µg/mL; MIC of Cefotaxime in combination with the compound [11]: 0.08 µg/mL; MIC of Cefotaxime in combination with the compound [12]: 0.6 µg/mL; MIC of Cefotaxime in combination with the compound [13]: 0.3 µg/mL
2 | NC(=O)CNC(=O)C1CCC2CN1C(=O)N2OS(=O)(=O)O (stereo not drawn) [Example 45, sodium salt of trans-N-(2-amino-2-oxoethyl)-7-oxo-6-(sulphooxy)-1,6-diazabicyclo[3.2.1]octane-2-carboxamide] | 60 nM | – | >40 µg/mL | – | 1.2 µg/mL | – | 0.6 µg/mL | – | 1.2 µg/mL | – | >40 µg/mL | 10 µg/mL | – | 2.5 µg/mL | 1.2 µg/mL | 2.5 µg/mL | 2.5 µg/mL | 5 µg/mL | 2.5 µg/mL | 12 nM | –
3 | NC(=O)COC(=O)C1CCC2CN1C(=O)N2OS(=O)(=O)O (stereo not drawn) [Example 48, sodium salt of trans 2-amino-2-oxoethyl 7-oxo-6-(sulphooxy)-1,6-diazabicyclo[3.2.1]octane-2-carboxylate] | 120 nM | 40 µg/mL | >40 µg/mL | 2.5 µg/mL | 1.2 µg/mL | <=0.04 μg/ml | 0.6 µg/mL | <=0.04 μg/ml | 0.6 µg/mL | >40 µg/mL | >40 µg/mL | 5 µg/mL | <=0.04 μg/ml | 1.2 µg/mL | 2.5 µg/mL | 2.5 µg/mL | 1.2 µg/mL | 2.5 µg/mL | 1.2 µg/mL | 15 nM | MIC of Cefotaxime in combination with the compound [8]: <=0.04 μg/ml; MIC of Cefotaxime in combination with the compound [9]: 0.15 µg/mL; MIC of Cefotaxime in combination with the compound [10]: <=0.04 μg/ml; MIC of Cefotaxime in combination with the compound [11]: <=0.04 μg/ml; MIC of Cefotaxime in combination with the compound [12]: 0.08 µg/mL; MIC of Cefotaxime in combination with the compound [13]: <=0.04 μg/ml
